# Reference: patent US20090137549A1, “Novel compounds useful for the treatment of degenerative & inflamatory diseases” (priority 2006, published 2009)
# Target: PDE1A (Homo sapiens, UniProt P54750)
# Test: PDE1A dose response, Cyclic Nucleotide Phosphodiesterase Assay Kit from Biomol (colorimetric)
# Assay type: biochemical
# Details: purified PDE1A enzyme, 100 μM cAMP
# Method in brief: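 Purified PDE1A hydrolysed 100 μM cAMP with 5′-nucleotidase in Tris 20 mM pH 7.4 with calmodulin, Ca2+, Mg2+, 45 min at 37° C. Released phosphate read by malachite-green absorbance at 615 nm. Duplicate 8-point 1/3 dilutions from 20 μM, 1% DMSO; 10 μM vardenafil defined 100% inhibition.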
row,IC50,Compound
1,1 to 100 nM,"O=C(Oc1ccc(F)cc1)N1CC(c2nc3c(cnn3C3CCCCC3)c(=O)[nH]2)C1 [Example 121, 4-fluorophenyl 3-(1-cyclohexyl-4-oxo-4,5-dihydro-1H-pyrazolo[3,4-d]pyrimidin-6-yl)azetidine-1-carboxylate]"
2,1 to 100 nM,"O=c1[nH]c(C2CN(c3nc4ccccc4[nH]3)C2)nc2c1cnn2C1CCCCC1 [Example 125, 1-Cyclohexyl-6-(1-(1H-benzo[d]imidazol-2-yl)azetidin-3-yl)-1H-pyrazolo[3,4-d]pyrimidin-4-(5H)-one]"
3,101 to 500 nM,"O=c1[nH]c(C2CN(c3nc4ccccc4s3)C2)nc2c1cnn2C1CCCCC1 [Example 129, 6-(1-(benzo[d]thiazol-2-yl)azetidin-3-yl)-1-cyclohexyl-1H-pyrazolo[3,4-d]pyrimidin-4(5H)-one]"
4,101 to 500 nM,"O=c1[nH]c(C2CN(c3nc4ccccc4o3)C2)nc2c1cnn2C1CCCCC1 [Example 130, 6-(1-(benzo[d]oxazol-2-yl)azetidin-3-yl)-1-cyclohexyl-1H-pyrazolo[3,4-d]pyrimidin-4(5H)-one]"
5,501 to 1000 nM,"Cn1c(N2CC(c3nc4c(cnn4C4CCCCC4)c(=O)[nH]3)C2)nc2ccccc21 [Example 131, 1-cyclohexyl-6-(1-(1-methyl-1H-benzo[d]imidazol-2-yl)azetidin-3-yl)-1H-pyrazolo[3,4-d]pyrimidin-4(5H)-one]"
6,1 to 100 nM,"O=c1[nH]c(C2CN(c3nc(-c4ccccc4)co3)C2)nc2c1cnn2C1CCCCC1 [Example 132, 1-cyclohexyl-6-(1-(4-phenyloxazol-2-yl)azetidin-3-yl)-1H-pyrazolo[3,4-d]pyrimidin-4(5H)-one]"
7,101 to 500 nM,"O=c1[nH]c(C2CN(c3nnc(-c4ccccc4)o3)C2)nc2c1cnn2C1CCCCC1 [Example 133, 1-cyclohexyl-6-(1-(5-phenyl-1,3,4-oxadiazol-2-yl)azetidin-3-yl)-1H-pyrazolo[3,4-d]pyrimidin-4(5H)-one]"
8,101 to 500 nM,"O=c1[nH]c(C2CN(c3ncc(CN4CCCCC4)s3)C2)nc2c1cnn2C1CCCCC1 [Example 135, 1-cyclohexyl-6-(1-(5-(piperidin-1-ylmethyl)thiazol-2-yl)azetidin-3-yl)-1H-pyrazolo[3,4-d]pyrimidin-4(5H)-one]"
9,101 to 500 nM,"O=c1[nH]c(C2CN(c3ncc(-c4ccccc4)o3)C2)nc2c1cnn2C1CCCCC1 [Example 136, 1-cyclohexyl-6-(1-(5-phenyloxazol-2-yl)azetidin-3-yl)-1H-pyrazolo[3,4-d]pyrimidin-4(5H)-one]"
10,101 to 500 nM,"CN1CCN(Cc2cnc(N3CC(c4nc5c(cnn5C5CCCCC5)c(=O)[nH]4)C3)s2)CC1 [Example 137, 1-cyclohexyl-6-(1-(5-((4-methylpiperazin-1-yl)methyl)thiazol-2-yl)azetidin-3-yl)-1H-pyrazolo[3,4-d]pyrimidin-4(5H)-one]"
11,501 to 1000 nM,"O=c1[nH]c(C2CN(c3ncc(Br)s3)C2)nc2c1cnn2C1CCCCC1 [Example 140, 6-(1-(5-bromothiazol-2-yl)azetidin-3-yl)-1-cyclohexyl-1H-pyrazolo[3,4-d]pyrimidin-4(5H)-one]"

# Continued, compound first:
row,Compound,IC50
1,"CC(C)N1CCN(c2ccc(OC(=O)N3CC(c4nc5c(cnn5C(C)(C)C)c(=O)[nH]4)C3)cc2)CC1 [Example 116, 4-(4-Isopropylpiperazin-1-yl)phenyl 3-(1-tert-butyl-4-oxo-4,5-dihydro-1H-pyrazolo [3,4-d]pyrimidin-6-yl)azetidine-1-carboxylate]",1 to 100 nM
2,"CC(C)(C)n1ncc2c(=O)[nH]c(C3CN(C(=O)OCC4CCCCC4)C3)nc21 [Example 117, cyclohexylmethyl 3-(1-tert-butyl-4-oxo-4,5-dihydro-1H-pyrazolo[3,4-d]pyrimidin-6-yl)azetidine-1-carboxylate]",1 to 100 nM
3,"CC(C)(C)n1ncc2c(=O)[nH]c(C3CN(C(=O)Oc4cccc(Cl)c4)C3)nc21 [Example 118, 3-chlorophenyl 3-(1-tert-butyl-4-oxo-4,5-dihydro-1H-pyrazolo[3,4-d]pyrimidin-6-yl)azetidine-1-carboxylate]",1 to 100 nM
4,"CC(C)(C)n1ncc2c(=O)[nH]c(C3CN(C(=O)Oc4ccc5c(c4)OCO5)C3)nc21 [Example 119, benzo[d][1,3]dioxol-5-yl 3-(1-tert-butyl-4-oxo-4,5-dihydro-1H-pyrazolo[3,4-d]pyrimidin-6-yl)azetidine-1-carboxylate]",1 to 100 nM
5,"O=C(OCC1CCCCC1)N1CC(c2nc3c(cnn3C3CCCCC3)c(=O)[nH]2)C1 [Example 120, cyclohexylmethyl 3-(1-cyclohexyl-4-oxo-4,5-dihydro-1H-pyrazolo[3,4-d]pyrimidin-6-yl)azetidine-1-carboxylate]",1 to 100 nM
6,"CC(C)(C)COC(=O)N1CC(c2nc3c(cnn3C3CCCCC3)c(=O)[nH]2)C1 [Example 122, neopentyl 3-(1-cyclohexyl-4-oxo-4,5-dihydro-1H-pyrazolo[3,4-d]pyrimidin-6-yl)azetidine-1-carboxylate]",101 to 500 nM
7,"Cc1nn(C2CCCCC2)c2nc(C3CN(C(=O)OC(C)(C)C)C3)[nH]c(=O)c12 [Example 123, tert-butyl 3-(1-cyclohexyl-3-methyl-4-oxo-4,5-dihydro-1H-pyrazolo[3,4-d]pyrimidin-6-yl)azetidine-1-carboxylate]",101 to 500 nM
8,"Cc1nn(C2CCCCC2)c2nc(C3CCCN(C(=O)Oc4ccccc4)C3)[nH]c(=O)c12 (stereo not shown) [Example 124, phenyl 3-(1-cyclohexyl-3-methyl-4-oxo-4,5-dihydro-1H-pyrazolo[3,4-d]pyrimidin-6-yl)piperidine-1-carboxylate]",501 to 1000 nM
9,"CC(C)(C)n1ncc2c(=O)[nH]c(C3CN(c4nc5ccc(Br)cc5[nH]4)C3)nc21 [Example 126, 6-(1-(6-bromo-1H-benzo[d]imidazol-2-yl)azetidin-3-yl)-1-tert-butyl-1H-pyrazolo[3,4-d]pyrimidin-4(5H)-one]",1 to 100 nM
10,"CC(C)(C)n1ncc2c(=O)[nH]c(C3CN(c4nc5cc(C(F)(F)F)ccc5[nH]4)C3)nc21 [Example 127, 1-tert-butyl-6-(1-(5-(trifluoromethyl)-1H-benzo[d]imidazol-2-yl)azetidin-3-yl)-1H-pyrazolo[3,4-d]pyrimidin-4(5H)-one]",1 to 100 nM
11,"CC(C)(C)n1ncc2c(=O)[nH]c(C3CN(c4nc5ccccc5[nH]4)C3)nc21 [Example 128, 6-(1-(1H-benzo[d]imidazol-2-yl)azetidin-3-yl)-1-tert-butyl-1H-pyrazolo[3,4-d]pyrimidin-4(5H)-one]",1 to 100 nM
12,"O=c1[nH]c(C2CN(c3ncc(CN4CCOCC4)s3)C2)nc2c1cnn2C1CCCCC1 [Example 134, 1-cyclohexyl-6-(1-(5-(morpholinomethyl)thiazol-2-yl)azetidin-3-yl)-1H-pyrazolo[3,4-d]pyrimidin-4(5H)-one]",101 to 500 nM
13,"O=c1[nH]c(C2CN(c3ncc(CN4CCCCCC4)s3)C2)nc2c1cnn2C1CCCCC1 [Example 138, 6-(1-(5-(azepan-1-ylmethyl)thiazol-2-yl)azetidin-3-yl)-1-cyclohexyl-1H-pyrazolo[3,4-d]pyrimidin-4(5H)-one]",101 to 500 nM
14,"Cc1nn(C(C)(C)C)c2nc(C3CN(c4nnnn4-c4ccccc4)C3)[nH]c(=O)c12 [Example 139, 1-tert-butyl-3-methyl-6-(1-(1-phenyl-1H-tetrazol-5-yl)azetidin-3-yl)-1H-pyrazolo[3,4-d]pyrimidin-4(5H)-one]",101 to 500 nM
